Experimental data published in patent US9012404B2, “Compositions and methods for cardiac tissue protection and regeneration” (3D Matrix, Inc., priority 2006, dated 2015).
“Also recorded” adds a separate entry of the source.

Experiments:
[1] = test system: L929 mouse fibroblast cell culture; experiment: Cytotoxicity: Agar Diffusion ISO 10993-5; assay type: cell-based; details: L929 mouse fibroblast monolayer
From the text: (§1) Standard in vitro toxicology studies, including EN/ISO tests for cytotoxicity and hemocompatibility, have been completed. The tests below were completed at a FDA certified toxicology testing company (Toxikon Corp, Bedford, Mass.) using established standards of measure on a CardioMatrix material (Tables 3 and 4). The CardioMatrix solution tested in this example comprised various concentrations of CardioMatrix powder in substantially sucrose free aqueous solution.
The Agar Diffusion test (ISO 10993-5) measures a material's effect on cell cultures, which are extremely sensitive to minute quantities of leachable chemicals and readily display characteristic signs of toxicity in the presence of potentially harmful leachables. The biological reactivity of a mammalian monolayer, L929 mouse fibroblast cell culture, in response to the test article was determined as “no-reactivity” in tests.

[2] = test system: rabbit blood (red blood cells); experiment: Hemolysis: Direct Contact (ISO 10993-4); assay type: cell-based; details: rabbit blood in direct contact, triplicate
From the text: as §1
The hemolysis test (Direct Contact, ISO-10993-4) measures the ability of a material to cause red blood cells to rupture. This test is derived from well-established NIH protocols and is performed in triplicate. This test uses rabbit blood in direct contact with the test material and the degree of hemolysis is measured spectrophotometrically.

[3] = test system: prothrombin coagulation time of human plasma; experiment: Prothrombin Time Assay, Human Plasma (ISO 10993-4)
From the text: as §1
Prothrombin Time (Human Plasma, ISO 10993-4) measures the effect of a test article extract on human blood coagulation time. This assay has become a suitable clinical means of determining the presence and functioning ability of prothrombin in the process of coagulation.

[4] = set-up: species or system Sprague Dawley rats; details: rat, in vivo
From the text: To measure the local and whole animal distribution a 14C, carbon radiolabeled version of a Cardiomatrix was generated. The radiolabeled version was internally labeled at the third alanine site (Acetyl-(RADA)-(R-[^14C(U)-Ala]-D-A)-(RADA)2-CONH2) as opposed to a labeled acetyl group which could be cleaved off, in order to better characterize the adsorption, degradation, metabolism and excretion (ADME) of the CardioMatrix material in vivo. The radiolabeled material was then implanted into Sprague Dawley rats in a femur defect model. Urine and stool samples were collected and the radioactivity was counted.

[5] = test system: paravertebral muscle of New Zealand white rabbits; details: in vivo
From the text: This test assesses the local effects of material on contact with living tissue. Test article was implanted into paravertebral muscle of 3 New Zealand white rabbits, with negative control (GelFoam) implanted in the contralateral muscle of each animal. Healing was allowed for 2 weeks. Animals were sacrificed and implants excised. Excised implants were examined macroscopically with a magnifying lens and fixed in formalin. Histologic slides of hematoxylin and eosin (H&E) and Mason's Trichrome stained sections were prepared, studied microscopically by a board-certified veterinary pathologist, and evaluated on a scale of 0-3. CardioMatrix implants retained the initial implant volume, collagen fibers, and vascularization of the injection site.

rabbits [6] = experiment: Rabbit Pyrogenicity (ISO-10993-11); assay type: in vivo; details: intravenous injection of extract at 10 mL/kg
Experimental: The purpose of the test was to detect the risk of a patient to a febrile reaction as a result of the administration of the test article extract. The test article was prepared by mixing 9 ml of the test article with 9 mL of 0.9% USP Sodium Chloride for Injection (NaCl) and the resulting gel extracted at a ration of 0.2 gm per 1.0 mL. The test article extract was administered by intravenous injection at 10 mL/kg. The rectal temperatures of the injected rabbits were compared with the temperature of a control rabbit similarly injected with 0.9% USP Sodium Chloride for Injection (NaCl). The base-line temperatures of the rabbits, determined no more than 30 minutes prior to injection of the test article extract, were used to exclude rabbits whose body temperatures vary by more than 1° C. from each other and whose temperatures are greater than 39.8° C. Body temperatures were recorded at 30 minute intervals between 1 and 3 hours subsequent to injection.

rabbits [7] = details: rabbit, in vivo
Experimental: A 0.5% w/v peptide CardioMatrix solution was extracted in NaCl and CSO at a ratio of 0.2 gm per 1.0 mL at 70±2° C. for 24 hours. […] Three rabbits were injected intracutaneously, using one side of the animal for the test article extracts and the other side for the control extracts, at 0.2 mL per site. The injected sites were examined at 24, 48, and 72 hours post inoculation for gross evidence of tissue reaction such as erythema, edema, and necrosis. A Primary Irritation Index of 0.5 or less will be considered a negligible irritant, where 0.5 to <2 are slight irritants, 2 to <5 are moderate irritants, and >5 are severe irritants.

Q: What does the source list for `CC(=O)N[C@@H](CCCNC(=N)N)C(=O)N[C@@H](C)C(=O)N[C@@H](CC(=O)O)C(=O)N[C@@H](C)C(=O)N[C@@H](CCCNC(=N)N)C(=O)N[C@@H](C)C(=O)N[C@@H](CC(=O)O)C(=O)N[C@@H](C)C(=O)N[C@@H](CCCNC(=N)N)C(=O)N[C@@H](C)C(=O)N[C@@H](CC(=O)O)C(=O)N[C@@H](C)C(=O)N[C@@H](CCCNC(=N)N)C(=O)N[C@@H](C)C(=O)N[C@@H](CC(=O)O)C(=O)N[C@@H](C)C(N)=O` [CardioMatrix, RADARADARADARADA]?
A: Cytotoxicity: Agar Diffusion, biological reactivity [1]: no-reactivity; also recorded: Non-cytotoxic; Hemolysis: Direct Contact [2]: Non-hemolytic; Initiation of coagulation cascades (hemocompatibility tests) ([3]; direct contact with blood and plasma): do not initiate coagulation cascades; Effect on prothrombin coagulation time ([3]; test article extract, human plasma): did not have an adverse effect; Time until degraded and excreted [4]: ≤ 28 days; Rabbit Muscle Implant toxicity score [5]: 0.13; Rabbit pyrogenicity, febrile reaction (rabbits [6]): None of the animals injected with the test article extract exhibited signs of pyrogenic response; also recorded: No effect on animals; also recorded: No febrile reaction from any animal; Irritant class by Primary Irritation Index (rabbits [7]): “Negligible”; Signs of erythema or edema at injected sites (rabbits [7]): did not exhibit signs of erythema or edema
